Laboratory results taken from patent US20010021514A1, “Luminescent metal-ligand complexes” (priority 1999, published 2001).
Read-outs that look alike come from different tables or passages of the source.

Legend:
[1] = Photoluminescence properties of the probe (spectra, Stokes' shift, lifetime, extinction); type: physicochemical
From the text: Photoluminescence may be characterized by a number of parameters, including extinction coefficient, excitation and emission spectrum, Stokes' shift, luminescence lifetime, and quantum yield. An extinction coefficient is a wavelength-dependent measure of the absorbing power of a luminophore. An excitation spectrum is the dependence of emission intensity upon the excitation wavelength, measured at a single constant emission wavelength. An emission spectrum is the wavelength distribution of the emission, measured after excitation with a single constant excitation wavelength. A Stokes' shift is the difference in wavelengths between the maximum of the emission spectrum and the maximum of the absorption spectrum. A luminescence lifetime is the average time that a luminophore spends in the excited state prior to returning to the ground state. A quantum yield is the ratio of the number of photons emitted to the number of photons absorbed by a luminophore.

[2] = Intrinsic polarization from excitation polarization spectra in vitrified solution; type: physicochemical; conditions: for fundamental anisotropy r0: corresponding to the intrinsic polarization; for intrinsic polarization P0: excitation polarization spectra in vitrified solution (glycerol: water=6:4; −55° C.)
From the text: Aspects of the invention include the use of selected long-lifetime metal-ligand complexes in luminescence polarization assays. Here, as elsewhere in the application, polarization assays encompass any assays involving detection of polarized light, including steady-steady and time-resolved assays, and computation of polarization and anisotropy functions, among others. […] Here, the invention was used without limitation to monitor interactions between human serum albumin (HSA) and goat-anti-HSA (IgG) antibodies. The HSA was labeled with a ruthenium-ligand complex polarization probe, Sunnyvale Red™ (SVR™), as described elsewhere in this application. […] These values were determined by measuring the excitation polarization spectra in vitrified solution (glycerol: water=6:4; −55° C.).

[3] = background statement on known luminophores; cited from earlier work

Ru(bpy)2(dacbpy)-ITC [Sunnyvale Red™]
Stokes' shift [1]: ~200 nm
emission maximum [1]: 670 nm
excitation maximum [1]: 488 nm
luminescence lifetime [1]: about 360 ns
excitation maximum ([1]; listed as SVR): 487 nm
luminescence lifetime ([1]; listed as SVR): 360 ns
extinction coefficient E(SVR) ([1]; used with A479 for dye concentration): ~15,000
fundamental anisotropy r0 [2]: about 0.28
fundamental anisotropy r0 ([2]; listed as SVR): 0.27
intrinsic polarization P0 [2]: about 0.37
intrinsic polarization P0 ([2]; listed as SVR): 0.36

O=C([O-])c1ccnc(-c2cc(C(=O)[O-])ccn2)c1.[Ru+2].c1ccc(-c2ccccn2)nc1.c1ccc(-c2ccccn2)nc1 [Ru(bpy)2dcbpy, ruthenium 2,2′-dibipyridyl 4,4′-dicarboxyl-2,2′-bipyridine]
luminescence lifetime (general statement) [3]: roughly 400 nanoseconds
